Experimental data as given in patent publication US10889625B2, “Peptide-based methods for treating neurological injury” (THE REGENTS OF THE UNIVERSITY OF COLORADO, a body corporate, priority 2016, dated 2021).
Residues, ends and D or L forms follow the SMILES beside them.

Columns and labels:
TRPM2 ion channels = TRPM2 ion channels (Mus musculus, UniProt Q91YD4); settings: males and females, background statement; cited from earlier work
TRPM2 channels = biological target: T1, TRPM2 channels (Mus musculus, UniProt Q91YD4); assay: 60 min tMCAO, total hemisphere infarct volume (TTC) in WT mice; type: in vivo; settings: given 3 hours after MCAO
T1 construct: from tissue; host or cells: mouse brain in vivo; acute hippocampal/brain slices from mice

[1] = mice, MCAO

T1 sequence (Q91YD4 whole entry): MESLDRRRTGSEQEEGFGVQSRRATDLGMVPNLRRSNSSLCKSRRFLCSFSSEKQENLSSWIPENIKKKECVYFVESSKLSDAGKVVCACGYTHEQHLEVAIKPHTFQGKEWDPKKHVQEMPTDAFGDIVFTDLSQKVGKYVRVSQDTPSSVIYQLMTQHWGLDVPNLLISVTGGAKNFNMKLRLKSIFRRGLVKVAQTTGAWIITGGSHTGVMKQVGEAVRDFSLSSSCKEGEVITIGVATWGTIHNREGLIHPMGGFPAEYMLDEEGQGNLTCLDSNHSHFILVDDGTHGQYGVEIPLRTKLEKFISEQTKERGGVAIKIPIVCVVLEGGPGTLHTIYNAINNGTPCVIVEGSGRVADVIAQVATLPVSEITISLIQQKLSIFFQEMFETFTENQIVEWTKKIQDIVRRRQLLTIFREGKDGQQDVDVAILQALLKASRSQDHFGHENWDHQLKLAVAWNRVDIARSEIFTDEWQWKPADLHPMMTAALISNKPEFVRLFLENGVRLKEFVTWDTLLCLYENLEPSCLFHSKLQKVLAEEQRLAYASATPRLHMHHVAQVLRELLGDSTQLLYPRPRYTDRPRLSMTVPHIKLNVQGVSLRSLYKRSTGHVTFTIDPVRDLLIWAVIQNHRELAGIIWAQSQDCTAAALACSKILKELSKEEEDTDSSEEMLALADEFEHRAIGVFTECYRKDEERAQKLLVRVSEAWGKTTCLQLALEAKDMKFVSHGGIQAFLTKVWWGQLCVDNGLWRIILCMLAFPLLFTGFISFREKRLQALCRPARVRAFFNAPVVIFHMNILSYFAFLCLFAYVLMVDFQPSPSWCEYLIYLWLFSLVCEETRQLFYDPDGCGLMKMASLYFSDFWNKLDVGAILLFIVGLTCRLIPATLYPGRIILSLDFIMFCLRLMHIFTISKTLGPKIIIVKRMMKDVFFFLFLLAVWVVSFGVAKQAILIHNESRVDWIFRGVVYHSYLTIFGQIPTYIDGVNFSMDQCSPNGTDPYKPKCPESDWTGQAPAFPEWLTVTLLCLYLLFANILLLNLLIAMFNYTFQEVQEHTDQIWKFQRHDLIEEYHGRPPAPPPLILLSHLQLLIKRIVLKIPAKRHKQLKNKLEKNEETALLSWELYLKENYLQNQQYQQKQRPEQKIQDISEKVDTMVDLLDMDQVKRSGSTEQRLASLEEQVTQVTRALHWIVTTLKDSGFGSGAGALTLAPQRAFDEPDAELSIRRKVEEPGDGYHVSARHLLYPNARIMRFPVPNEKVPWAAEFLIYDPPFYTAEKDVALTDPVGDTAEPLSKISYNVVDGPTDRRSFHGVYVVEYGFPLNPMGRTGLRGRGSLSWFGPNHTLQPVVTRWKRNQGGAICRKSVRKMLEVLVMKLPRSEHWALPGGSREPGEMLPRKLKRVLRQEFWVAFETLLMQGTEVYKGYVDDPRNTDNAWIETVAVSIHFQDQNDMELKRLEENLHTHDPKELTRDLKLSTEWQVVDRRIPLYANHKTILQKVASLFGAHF
Chain of TRPM2 ion channels (Q91YD4 whole entry): as above

Row | Structure (SMILES) | infarct size following stroke (TRPM2 ion channels) | infarct volume (TRPM2 channels) [%] | effect on physiological variables such as blood pressure [1]
1 | Clc1ccccc1C(c1ccccc1)(c1ccccc1)n1ccnc1 [CTZ, clotrimazole] | reduces infarct size in males, but not females | 46.8±7.4 | 
2 | CSCC[C@H](NC(=O)[C@H](CCC(=O)O)NC(=O)CNC(=O)[C@@H]1CCCN1C(=O)[C@H](CCC(=O)O)NC(=O)[C@H](CCCNC(=N)N)NC(=O)[C@H](CO)NC(=O)CNC(=O)[C@H](CCCNC(=N)N)NC(=O)[C@H](CCCNC(=N)N)NC(=O)[C@H](CCCNC(=N)N)NC(=O)[C@H](CCC(N)=O)NC(=O)[C@H](CCCNC(=N)N)NC(=O)[C@H](CCCNC(=N)N)NC(=O)[C@H](CCCCN)NC(=O)[C@H](CCCCN)NC(=O)[C@H](CCCNC(=N)N)NC(=O)CNC(=O)[C@@H](N)Cc1ccc(O)cc1)C(=O)N[C@@H](CC(C)C)C(=O)N1CCC[C@H]1C(=O)N[C@@H](CCCNC(=N)N)C(=O)N[C@@H](CCCCN)C(=O)N[C@@H](CC(C)C)C(=O)N[C@@H](CCCCN)C(=O)N[C@@H](CCCNC(=N)N)C(=O)N[C@H](C(=O)N[C@@H](CC(C)C)C(=O)N[C@@H](CCCNC(=N)N)C(=O)N[C@@H](CCC(N)=O)C(=O)N[C@@H](CCC(=O)O)C(=O)N[C@@H](Cc1ccccc1)C(=O)N[C@@H](Cc1c[nH]c2ccccc12)C(=O)N[C@H](C(=O)O)C(C)C)C(C)C [tat-M2NX] (H-YGRKKRRQRRRGSREPGEMLPRKLKRVLRQEFWV-OH; N-terminus and C-terminus assumed) |  |  | no effect
